Assay results: article PMC10687260, “1,3-Diphenylureido hydroxamate as a promising scaffold for generation of potent antimalarial histone deacetylase inhibitors” (Scientific Reports, 2023)

Key:
human HDAC6 = biological target: T1, human HDAC6 (Homo sapiens, UniProt Q9UBN7); assay: In vitro HDAC enzymatic assay, HDAC6; type: biochemical; settings: for IC50: mean ± SD; for HDAC1/6 SI: ratio HsHDAC1 IC50/HsHDAC6 IC50
T1 construct: purchased ENZO Life Sciences AG (Lausen, CH)
T1 sequence (Q9UBN7 1-1215): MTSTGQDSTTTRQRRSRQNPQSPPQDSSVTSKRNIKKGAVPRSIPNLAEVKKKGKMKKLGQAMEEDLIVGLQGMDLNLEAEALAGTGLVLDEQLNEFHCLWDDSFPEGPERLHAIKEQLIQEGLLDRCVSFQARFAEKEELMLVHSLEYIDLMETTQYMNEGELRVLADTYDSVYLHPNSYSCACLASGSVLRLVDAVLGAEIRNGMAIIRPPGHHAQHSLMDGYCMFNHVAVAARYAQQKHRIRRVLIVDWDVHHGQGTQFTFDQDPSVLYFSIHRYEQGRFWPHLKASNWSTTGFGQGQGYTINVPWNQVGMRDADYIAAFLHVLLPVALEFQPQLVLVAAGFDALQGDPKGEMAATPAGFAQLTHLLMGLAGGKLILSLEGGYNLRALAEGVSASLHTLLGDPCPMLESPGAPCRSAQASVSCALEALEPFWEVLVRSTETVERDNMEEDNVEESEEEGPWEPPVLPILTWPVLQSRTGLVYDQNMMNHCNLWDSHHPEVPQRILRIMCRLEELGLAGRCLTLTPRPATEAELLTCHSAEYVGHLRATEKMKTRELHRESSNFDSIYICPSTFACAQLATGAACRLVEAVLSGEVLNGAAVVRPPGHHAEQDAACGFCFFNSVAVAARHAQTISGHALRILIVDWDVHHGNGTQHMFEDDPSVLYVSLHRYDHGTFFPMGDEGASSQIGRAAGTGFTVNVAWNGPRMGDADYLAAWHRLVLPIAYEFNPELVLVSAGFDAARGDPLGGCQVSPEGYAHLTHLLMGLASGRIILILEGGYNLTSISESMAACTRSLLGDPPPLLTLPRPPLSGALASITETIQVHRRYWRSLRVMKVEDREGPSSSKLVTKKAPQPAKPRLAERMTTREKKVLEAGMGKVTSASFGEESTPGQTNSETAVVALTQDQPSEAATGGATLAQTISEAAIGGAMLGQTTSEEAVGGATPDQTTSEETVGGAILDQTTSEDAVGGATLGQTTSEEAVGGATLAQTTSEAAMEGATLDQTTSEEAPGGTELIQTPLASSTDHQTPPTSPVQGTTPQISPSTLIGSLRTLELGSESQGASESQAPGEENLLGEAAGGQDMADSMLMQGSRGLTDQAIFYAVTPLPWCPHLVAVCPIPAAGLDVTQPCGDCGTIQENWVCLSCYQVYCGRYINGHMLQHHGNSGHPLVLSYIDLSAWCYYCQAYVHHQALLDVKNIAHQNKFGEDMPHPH
Experimental: (§1) In vitro HDAC enzymatic assays. Recombinant human HDAC1 and HDAC6 were purchased from ENZO Life Sciences AG (Lausen, CH) whereas HDAC8 was produced as described before. In vitro testing of the inhibitors in an enzymatic assay was carried out as described in previous publications[32],[33]. For HDAC1 a fluorogenic peptide derived from p53 (Ac-RHKK(Acetyl)-AMC) was used. For HDAC6, the substrate (Abz-SRGGK(thio-TFA)FFRR-NH2) was used as described before.

human HDAC1 = biological target: T2, human HDAC1 (Homo sapiens, UniProt Q13547); assay: In vitro HDAC enzymatic assay, HDAC1; type: biochemical; settings: mean ± SD
T2 construct: purchased ENZO Life Sciences AG (Lausen, CH)
Experimental: as §1

HepG2 cells = assay: Cytotoxicity in human HepG2 cells (WST-1); type: cell-based; settings: Homo sapiens, HepG2; 48 h, WST-1; read-out: IC50 HepG2
Experimental: Cytotoxicity in human HepG2 cells.[47] […] Cytotoxic effects of compounds were assessed using the cell proliferation reagent WST-1 (Roche; CELLPRO-RO) in a 96-well plate-based screening assay. HepG2 cells were seeded at 10^4 cells/well (100 μL) in 96-well flat-bottom plates (Sarstedt) the night before the experiment to allow attachment of cells. The next day, two-fold serial dilutions of compounds were prepared in fresh medium in an extra plate, and the medium of cells was replaced by the medium containing the compound dilutions. Non-treated cells (max. proliferation), cells treated with the maximal solvent concentration (DMSO; solvent control), and medium with the maximal compound concentration (native absorbance) used as controls. […] Subsequently, 10 μL WST-1 was added to each well and plates were incubated for additional 4 h under standard conditions. WST-1 is a tetrazolium salt and is metabolised by the mitochondrial succinate-tetrazolium-reductase system of living cells and forms formazan, whose absorbance was measured at 450 nm. Absorbance at 630 nm was assessed to check for protein and precipitation background. Both measurements were acquired via the CLARIOstar (V5.20) and MARS software, manually scaled to 0–100%, and plotted with GraphPad Prism (version 9.5.2 for Windows, GraphPad Software, La Jolla California USA).

HDAC8 = biological target: T3, HDAC8 (Homo sapiens, UniProt Q9BY41); assay: In vitro HDAC enzymatic assay, HDAC8; type: biochemical; settings: mean ± SD
T3 construct: made in house
T3 sequence (Q9BY41 1-377): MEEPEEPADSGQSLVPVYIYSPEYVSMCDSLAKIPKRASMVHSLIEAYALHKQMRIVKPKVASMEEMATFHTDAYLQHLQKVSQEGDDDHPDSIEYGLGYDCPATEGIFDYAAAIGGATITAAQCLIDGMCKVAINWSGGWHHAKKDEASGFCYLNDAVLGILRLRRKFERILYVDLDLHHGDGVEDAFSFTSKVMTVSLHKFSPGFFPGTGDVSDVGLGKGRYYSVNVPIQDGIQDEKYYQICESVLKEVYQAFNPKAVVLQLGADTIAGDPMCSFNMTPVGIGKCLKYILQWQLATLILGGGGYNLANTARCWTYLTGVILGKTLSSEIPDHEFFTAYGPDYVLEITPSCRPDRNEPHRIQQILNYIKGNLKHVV
Experimental: as §1

P. falciparum 3D7 = assay: Antiplasmodial SYBR Green I proliferation assay, P. falciparum 3D7; type: cell-based, Plasmodium falciparum; settings: Plasmodium falciparum, 3D7, 96 h, 96 h; values in brackets 95% confidence intervals; read-out: IC50 Pf3D7
Text: Antiplasmodial activity against P. falciparum 3D7 (A, C and E) and P. falciparum Dd2 (B, D, F). […] Curves were plotted using non-linear regression based on means from three independent experiments measured in triplicate. Error bars indicate standard deviation, whose values are provided in the respective table.
Plasmodium falciparum culture and antiplasmodial activity. […] Development, parasitaemia, and morphology of parasites were monitored by light microscopy of thin blood smears stained according to the Romanowsky method (Panótico Rápido staining kit; Laborclin, Pinhais, Paraná, Brazil). […] Fresh 0^+ blood was generously provided by “Hospital Novo Atibaia” (Atibaia, SP, Brazil), and approved by the ethics committee at ICB-USP. The antiplasmodial effect of all compounds was validated against P. falciparum 3D7 strain conducting SYBR Green I (Invitrogen) drug assays as previously reported[30],[46] as a modification of the original procedure. […] Parasite proliferation was measured by the DNA load via fluorescence, using 100 μL of a lysis buffer with SYBR Green I (0.02% v/v) and incubated for 1 h at room temperature in the dark. […] Focal and gain adjustment was performed using the non-treated controls (highest expected fluorescence signal). Data was acquired via the CLARIOstar (V5.20) and MARS software, manually scaled to 0–100%, and plotted using GraphPad Prism (v9.5.2 for Windows, GraphPad Software, La Jolla California USA, www.graphpad.com). Non-treated parasites, the highest solvent concentration on parasites, CQ on parasites, and the highest drug concentration in the medium were used as controls for maximal growth, solvent control, positive biological control, and native drug fluorescence, respectively.

[1] = Stability in mouse hepatic microsomes; type: in vitro ADME
Text: (§2) DMPK evaluation. […].

[2] = Stability in human hepatic microsomes; type: in vitro ADME
Text: as §2

CYP450 2D6 = biological target: T4, CYP450 2D6 (Homo sapiens, UniProt P10635); assay: CYP450 inhibition in human liver microsomes, 2D6; type: in vitro ADME; settings: Tested concentration: 40 µM
T4 construct: 10 μM compound was incubated with human liver microsomes and selective marker substrates; from tissue; host or cells: human liver microsomes

CYP450 2C9 = biological target: T5, CYP450 2C9 (Homo sapiens, UniProt P11712); assay: CYP450 inhibition in human liver microsomes, 2C9; type: in vitro ADME
T5 construct: 10 μM compound was incubated with human liver microsomes and selective marker substrates; from tissue; host or cells: human liver microsomes

CYP1A2 = biological target: T6, CYP1A2 (Homo sapiens, UniProt P05177); assay: CYP450 inhibition in human liver microsomes, 1A2; type: in vitro ADME; settings: Tested concentration: 1.0 µM
T6 construct: 10 μM compound was incubated with human liver microsomes and selective marker substrates; from tissue; host or cells: human liver microsomes
T6 sequence (P05177 1-516): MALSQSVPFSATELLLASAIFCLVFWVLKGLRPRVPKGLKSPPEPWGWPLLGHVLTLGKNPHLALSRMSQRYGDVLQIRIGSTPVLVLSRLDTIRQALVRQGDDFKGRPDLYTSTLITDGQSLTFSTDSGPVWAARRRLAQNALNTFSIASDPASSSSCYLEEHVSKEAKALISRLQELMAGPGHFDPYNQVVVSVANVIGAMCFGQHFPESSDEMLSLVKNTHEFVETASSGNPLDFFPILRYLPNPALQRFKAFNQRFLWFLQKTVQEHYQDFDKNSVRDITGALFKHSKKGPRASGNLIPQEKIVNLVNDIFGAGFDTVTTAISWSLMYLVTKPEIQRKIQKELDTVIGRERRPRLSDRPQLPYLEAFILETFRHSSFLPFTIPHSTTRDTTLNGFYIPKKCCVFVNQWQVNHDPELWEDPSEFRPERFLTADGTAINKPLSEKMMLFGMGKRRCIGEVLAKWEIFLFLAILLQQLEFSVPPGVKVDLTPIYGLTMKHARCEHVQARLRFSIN

T2 sequence (Q13547 whole entry): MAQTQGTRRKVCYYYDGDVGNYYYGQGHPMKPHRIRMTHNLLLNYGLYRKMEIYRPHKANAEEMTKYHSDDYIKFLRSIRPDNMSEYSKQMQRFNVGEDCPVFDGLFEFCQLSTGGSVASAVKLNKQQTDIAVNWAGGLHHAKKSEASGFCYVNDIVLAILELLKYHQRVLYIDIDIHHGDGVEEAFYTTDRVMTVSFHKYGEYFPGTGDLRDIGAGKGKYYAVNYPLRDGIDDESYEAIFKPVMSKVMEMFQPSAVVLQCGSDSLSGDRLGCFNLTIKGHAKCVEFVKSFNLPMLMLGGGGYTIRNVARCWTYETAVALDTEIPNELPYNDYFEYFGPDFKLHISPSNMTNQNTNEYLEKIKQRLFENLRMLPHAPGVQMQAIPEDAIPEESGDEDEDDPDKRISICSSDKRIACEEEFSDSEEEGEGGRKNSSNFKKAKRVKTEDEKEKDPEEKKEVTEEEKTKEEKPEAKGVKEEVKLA
T5 sequence (P11712 whole entry): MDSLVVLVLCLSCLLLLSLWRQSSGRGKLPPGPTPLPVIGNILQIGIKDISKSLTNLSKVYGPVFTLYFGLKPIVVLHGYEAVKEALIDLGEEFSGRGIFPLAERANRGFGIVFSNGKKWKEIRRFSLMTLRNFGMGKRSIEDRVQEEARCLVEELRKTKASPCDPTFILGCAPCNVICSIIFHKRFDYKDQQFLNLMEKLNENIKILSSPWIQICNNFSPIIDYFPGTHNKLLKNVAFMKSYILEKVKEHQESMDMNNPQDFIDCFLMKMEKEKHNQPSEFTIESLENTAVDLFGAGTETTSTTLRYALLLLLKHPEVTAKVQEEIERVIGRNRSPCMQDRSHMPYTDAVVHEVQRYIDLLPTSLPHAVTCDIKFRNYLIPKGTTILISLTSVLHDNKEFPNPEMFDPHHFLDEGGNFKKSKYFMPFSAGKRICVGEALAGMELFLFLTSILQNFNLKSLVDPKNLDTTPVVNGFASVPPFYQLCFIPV
T4 sequence (P10635 whole entry): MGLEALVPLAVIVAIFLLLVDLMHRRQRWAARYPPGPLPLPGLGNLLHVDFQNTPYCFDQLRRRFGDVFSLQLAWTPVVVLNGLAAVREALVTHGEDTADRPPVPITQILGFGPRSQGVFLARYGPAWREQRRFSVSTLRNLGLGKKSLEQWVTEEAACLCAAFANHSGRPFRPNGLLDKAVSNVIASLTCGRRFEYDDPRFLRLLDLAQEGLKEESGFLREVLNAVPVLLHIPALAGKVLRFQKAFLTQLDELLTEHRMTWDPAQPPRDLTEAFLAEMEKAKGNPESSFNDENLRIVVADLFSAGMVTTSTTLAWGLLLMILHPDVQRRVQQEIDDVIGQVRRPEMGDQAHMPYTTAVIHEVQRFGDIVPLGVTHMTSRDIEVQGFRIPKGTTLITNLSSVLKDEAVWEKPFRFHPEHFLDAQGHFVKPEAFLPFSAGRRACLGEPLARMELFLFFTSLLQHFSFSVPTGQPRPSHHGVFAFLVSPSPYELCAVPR

SMILES	IC50 (human HDAC6)	IC50 (HepG2 cells)	IC50 (P. falciparum 3D7)	also measured
O=C(CCc1ccc(NC(=O)Nc2ccc(Cl)cc2)cc1)NO [Compound 7b, 3-(4-(3-(4-chlorophenyl)ureido)phenyl)-N-hydroxypropanamide]	185 ± 21.6 nM	> 50 µM	7040 nM	HDAC1/6 SI (human HDAC6): 26; IC50 (human HDAC1): 4.78 ± 0.446 µM; IC50 (HDAC8): 568 ± 40.5 nM; melting point: 286 °C (dec.)
O=C(Nc1ccc(C(=O)NO)cc1)Nc1ccc(C(F)(F)F)cc1 [Compound 8i, N-hydroxy-4-(3-(4-(trifluoromethyl)phenyl)ureido)benzamide]		25.1 µM	1300 nM	
CCN(CC)CCNC(=O)c1c(C)[nH]c(/C=C2\C(=O)Nc3ccc(F)cc32)c1C [Sunitinib, reference compound]				half-life at 1 µM ([1]; 1 mg/mL hepatic microsomes, 1 µM compound, read-out: Half-life t1/2 Mouse): 9.1 min; microsomal CLint at 1 µM ([1]; read-out: Intrinsic clearance Clint Mouse): 76 µL/min/mg; half-life at 1 µM ([2]; 1 mg/mL hepatic microsomes, 1 µM compound, read-out: Half-life t1/2 Human): 22.3 min; microsomal CLint at 1 µM ([2]; read-out: Intrinsic clearance Clint Human): 31 µL/min/mg
N#Cc1ccc(NC(=O)Nc2ccc(C(=O)NO)cc2)cc1 [8 k, 4-(3-(4-cyanophenyl)ureido)-N-hydroxybenzamide]	11.6 ± 0.2 nM	> 200 µM	260 nM	HDAC1/6 SI (human HDAC6): 323; IC50 (human HDAC1): 3.75 ± 0.563 µM; IC50 (HDAC8): 51.5 ± 6.1 nM; melting point: 220 to 222 °C
Nc1ccc(C(=O)NO)cc1 [Compound 15, 4-amino-N-hydroxybenzamide]		> 200 µM	6300 nM	
Cc1nc2c([nH]1)c(=O)n(C)c(=O)n2Cc1ccco1 [Furafylline, reference compound]				CYP450% inhibition 2D6 (CYP450 2D6): * (Inhibition < 10%); CYP450% inhibition 2C9 (CYP450 2C9; Tested concentration: 40 µM): * (Inhibition < 10%)
O=C(Nc1ccc(F)cc1)Nc1ccc(C(=O)NO)cc1 [Compound 8f., 4-(3-(4-fluorophenyl)ureido)-N-hydroxybenzamide]		116 µM	400 nM	
N/C(=N\O)c1ccc(NC(=O)Nc2ccc(C(=O)NO)cc2)cc1 [8 h, (Z)-N-hydroxy-4-(3-(4-(N'-hydroxycarbamimidoyl)phenyl)ureido)benzamide]	21.3 ± 0.5 nM	> 200 µM	390 nM	HDAC1/6 SI (human HDAC6): 390; IC50 (human HDAC1): 8.3 ± 0.481 µM; IC50 (HDAC8): 164 ± 9.1 nM; melting point: 97 to 99 °C
O=C(Nc1ccc(OC(F)(F)F)cc1)Nc1ccc(C(=O)NO)cc1 [8 g, N-hydroxy-4-(3-(4-(trifluoromethoxy)phenyl)ureido)benzamide]		60.5 µM	13900 nM	
Nc1ccc(NC(=O)Nc2ccc(C(=O)NO)cc2)cc1 [Compound 8j, 4-(3-(4-aminophenyl)ureido)-N-hydroxybenzamide]		> 200 µM	350 nM	
O=C(/C=C/c1ccc(NC(=O)Nc2ccc([N+](=O)[O-])cc2)cc1)NO [Compound 6d, (E)-N-hydroxy-3-(4-(3-(4-nitrophenyl)ureido)phenyl)acrylamide]	9 ± 0.7 nM	10.4 µM	1260 nM	HDAC1/6 SI (human HDAC6): 124; IC50 (human HDAC1): 1.11 ± 0.0563 µM; IC50 (HDAC8): 99.1 ± 10.9 nM; melting point: 167 to 168 °C
Cc1ccc(NC(=O)Nc2ccc(C(=O)NO)cc2)cc1 [Compound 8e, N-hydroxy-4-(3-(p-tolyl)ureido)benzamide]		> 200 µM	340 nM	
O=C(/C=C/c1ccc(NC(=O)Nc2ccc(Cl)cc2)cc1)NO [Compound 6b, (E)-3-(4-(3-(4-chlorophenyl)ureido)phenyl)-N-hydroxyacrylamide]	14.3 ± 2.2 nM	28.8 µM	7880 nM	
CC(=O)N1CCN(c2ccc(OCC3COC(Cn4ccnc4)(c4ccc(Cl)cc4Cl)O3)cc2)CC1 (stereo not drawn) [Ketoconazole, reference compound]				CYP450% inhibition 2C9 (CYP450 2C9; Tested concentration: 1.0 µM): * (Inhibition < 10%); CYP450% inhibition 1A2 (CYP1A2): * (Inhibition < 10%)
